Experimental data: patent US20180258180A1, “COMBINATION THERAPY INVOLVING ANTIBODIES AGAINST CLAUDIN 18.2 FOR TREATMENT OF CANCER” (Ganymed Pharmaceuticals AG, priority 2012, published 2018)
Blank lines part the entries; values can stand above or below the compound they belong to.

Experiments:
[1] = test system: KatoIII cells; assay: Cell cycle analysis of KatoIII cells treated with cytostatic compounds; format: cell-based, human; conditions: for cell cycle phase in which cells are predominantly arrested/enriched: KatoIII cells, 96 hours; for cell cycle arrest phase: KatoIII cells pretreated for 4 days
Experimental: (§1) KatoIII cells, a human gastric tumor cell line, was cultivated in RPMI 1640 medium (Invitrogen) containing 20% FCS (Perbio) and 2 mM Glutamax (Invitrogen) at 37° C. and 5% CO2, with or without cytostatic compounds. Epirubicin (Pfizer) was tested at a concentration of 10 or 100 ng/ml, 5-FU (Neofluor from NeoCorp AG) was tested at a concentration of 10 or 100 ng/ml, and oxaliplatin (Hospira) was tested at a concentration of 50 or 500 ng/ml. A combination of all 3 compounds (EOF; epirubicin 10 ng/ml, oxaliplatin 500 ng/ml, 5-FU 10 ng/ml) was also used. 8×10^5 KatoIII cells were cultivated for 96 hours without medium change or for 72 hours followed by 24 hours cultivation in standard medium to release cells from cell cycle arrest in a 6-well tissue culture plate at 37° C., 5% CO2. Cells were harvested with EDTA/trypsin, washed and analysed.
Cell cycle stages were determined based on measurement of cellular DNA content. This allows one to discriminate between cells in the G1-, S- or G2-phase of the cell cycle. In the S-phase DNA duplication occurs whereas in the G2-phase cells grow and prepare for mitosis. Cell cycle analysis was done using the CycleTEST PLUS DNA Reagent Kit from BD Biosciences following the manufacturer's protocol. Flow cytometry acquisition and analysis were performed by using BD FACS CantoII (BD Biosciences) and FlowJo (Tree Star) software.
(§2) KatoIII cells were pretreated for 4 days with Irinotecan or Docetaxel and analysed for CLDN18.2 expression and cell cycle arrest.

[2] = test system: CLDN18.2; assay: Extracellular detection of CLDN18.2 on treated KatoIII cells by flow cytometry; format: cell-based, human; conditions: 96 hours, FIG. 1
Experimental: as §1
As secondary reagent goat-anti-huIgG-APC from Dianova was used.

[3] = test system: KatoIII cells; assay: IMAB362 induced ADCC / viability of pretreated KatoIII cells (luciferase); format: cell-based, human; conditions: KatoIII pretreated for 3 days; for level of viable cells compared to medium cultivated target cells: Irinotecan 1000 ng/ml, Docetaxel 5 ng/ml, Cisplatin 2000 ng/ml
Experimental: Peripheral blood mononuclear cells (PBMCs) including NK cells, monocytes, mononuclear cells or other effector cells from healthy human donors were purified by Ficoll Hypaque density centrifugation. Washed effector cells were seeded in X-Vivo medium. KatoII cells which express CLDN18.2 endogenously and are of gastric origin were used as target cells in this setting. Target cells stably expressed luciferase, lucifer yellow, which is oxidized by viable cells only.

[4] = test system: claudin18.2; assay: claudin18.2 expression in pretreated KatoIII cells; format: cell-based, human; conditions: KatoIII pretreated for 3 days; Irinotecan 1000 ng/ml, Docetaxel 5 ng/ml, Cisplatin 2000 ng/ml
[5] = test system: KatoIII cells; assay: Cell growth of KatoIII cells pretreated with Irinotecan or Docetaxel; format: cell-based, human; conditions: KatoIII cells pretreated for 4 days
From the text: as §2

[6] = test system: PBMCs; assay: Expansion of PBMC cultures with ZA/IL-2; format: cell-based, human; conditions: 14 days, 300 U/ml IL-2
Experimental: PBMCs were harvested from healthy human donors and cultures were treated with a single dose of ZA. […] FIG. 8a. […] FIG. 8b. Increase in cell numbers was determined by counting living cells on day 6, 8, 11 and 14.

[7] = test system: Vγ9Vδ2 T cells; assay: Enrichment of Vγ9Vδ2 T cells co-cultured with monocytes ± ZA; format: cell-based, human; conditions: co-culture 14 days, ±1 μM ZA
Experimental: The enrichment of Vγ9Vδ2 T cells in the co-cultures after 14 days was determined by multicolor FACS, whereas the expansion of the culture was considered in the calculation. The enrichment factor of Vγ9Vδ2 T cells cultured with monocytes in a 1:4 ratio was set to 100% for each experiment. […] This effect was clearly ZA-dependent; cf. FIG. 11a.

[8] = test system: NUGC-4; format: cell-based, human
Experimental: (§3) Furthermore, human stomach cancer cells (NUGC-4-luciferase) and murine stomach cancer cells (CLS103-calcein stained) were pretreated with or w/o 5 μM ZA for 2 days. Human Vγ9Vδ2 T cells were MACS purified (day 14) and co-cultured with the cancer cells for 24 h. Cytotoxicity of Vγ9V52 T cells towards non-treated and ZA-treated target cells was determined by measuring remaining luciferase activity or calcein fluorescence; cf. FIG. 11b. Target cells (NUGC-4 and CLS103) were pretreated with or w/o 5 μM ZA for 2 days and subsequently incubated for 4 h with mitomycin c ([…]) to stop proliferation. MACS purified human 14d old resting Vγ9V62 T cells and ^3H-thymidine were added to the target cells and co-cultures were incubated for 48 h at 37° C. Proliferation was determined by measuring ^3H thymidine incorporation in the DNA using a MicroBeta scintillation counter. Proliferation of target cells not treated with ZA and w/o Vγ9Vδ2 T cells was set to 100%; cf. FIG. 11c.

[9] = test system: CLS103
Experimental: as §3

[10] = target: Claudin 18 splice variant 2 (CLDN18.2), human (human)
[11] = test system: HEK293~CLDN18.2 transfectants; assay: Early treatment of HEK293~CLDN18.2 tumor xenografts; format: in vivo, nude mice; conditions: isotype control, twice per week for 6 weeks
From the text: Moreover, advanced tumor treatment experiments were initiated up to 9 days after tumor cell inoculation when tumors had reached volumes of about 60-120 mm^3.
Nude mice were subcutaneously inoculated with 1×10^7 HEK293˜CLDN18.2 transfectants. Treatment of 10 mice per group started 3 days after tumor inoculation. […] Not only time to death was prolonged, but 4 of 10 mice survived the entire observation period of 210 days.

[12] = test system: NUGC-4 xenografts; assay: Biodistribution of Dyelight 680-labeled antibodies in NUGC-4 xenografted nude mice; conditions: negative control, NUGC-4 negative for CD20

Compound: O=c1[nH]cc(F)c(=O)[nH]1 [5-FU, 5-fluoro-1H-pyrimidine-2,4-dione]
cell cycle phase in which cells are predominantly arrested/enriched [1]: S-phase | CLDN18.2-expression [2]: stabilize

Compound: N.N.[Cl][Pt][Cl] [Cisplatin, cis-diamminedichloroplatinum(II)]
potency of IMAB362 to induce ADCC after pretreatment of target cells [3]: augmented | level of viable cells compared to medium cultivated target cells [3]: lower level of viable cells | claudin18.2 expression compared to medium cultivated cells [4]: increased

Compound: CC(=O)O[C@@]12CO[C@@H]1C[C@H](O)[C@@]1(C)C(=O)[C@H](O)C3=C(C)[C@@H](OC(=O)[C@H](O)[C@@H](NC(=O)OC(C)(C)C)c4ccccc4)C[C@@](O)([C@@H](OC(=O)c4ccccc4)[C@H]21)C3(C)C [Docetaxel, docetaxel]
cell cycle arrest phase [1]: G2-phase | cell growth [5]: dose dependent inhibition | potency of IMAB362 to induce ADCC after pretreatment of target cells [3]: augmented | level of viable cells compared to medium cultivated target cells [3]: lower level of viable cells | claudin18.2 expression compared to medium cultivated cells [4]: increased

Compound: COc1cccc2c1C(=O)c1c(O)c3c(c(O)c1C2=O)C[C@@](O)(C(=O)CO)C[C@@H]3O[C@H]1C[C@H](N)[C@@H](O)[C@H](C)O1 [Epirubicin]
cell cycle phase in which cells are predominantly arrested/enriched [1]: G2-phase | CLDN18.2-expression [2]: stabilize

Compound: CCc1c2c(nc3ccc(OC(=O)N4CCC(N5CCCCC5)CC4)cc13)-c1cc3c(c(=O)n1C2)COC(=O)[C@]3(O)CC [Irinotecan, (S)-4,11-diethyl-3,4,12,14-tetrahydro-4-hydroxy-3,14-dioxo1H-pyrano[3′,4′:6,7]-indolizino[1,2-b]quinolin-9-yl-[1,4′bipiperidine]-1′-carboxylate]
cell cycle arrest phase [1]: S/G2-phase | cell growth [5]: dose dependent inhibition | potency of IMAB362 to induce ADCC after pretreatment of target cells [3]: augmented | level of viable cells compared to medium cultivated target cells [3]: lower level of viable cells | claudin18.2 expression compared to medium cultivated cells [4]: increased

Compound: O=C1[O][Pt]2([NH][C@@H]3CCCC[C@H]3[NH]2)[O]C1=O [Oxaliplatin, [(1R,2R)-cyclohexane-1,2-diamine](ethanedioato-O,O′)platinum(II)]
cell cycle phase in which cells are predominantly arrested/enriched [1]: G1- and G2-phases

Compound: O=P(O)(O)C(O)(Cn1ccnc1)P(=O)(O)O [ZA, [1-hydroxy-2-(1H-imidazol-1-yl)ethane-1,1-diyl]bis(phosphonic acid)]
expansion of cells in medium without ZA compared to with ZA (lower) [6]: about 2 fold | enrichment of Vγ9Vδ2 T cells with increase of monocytes, ZA-dependent [7]: more than 10 fold | activation of Vγ9Vδ2 T cell cytotoxicity by ZA-pulsed cancer cells [8]: 5-10 fold | activation of Vγ9Vδ2 T cell proliferation by ZA-pulsed cancer cells ([8]; 5 μM ZA for 2 days, co-culture 48 h, 3H-thymidine): 1.4-1.8 fold | activation of Vγ9Vδ2 T cells (cytotoxicity and proliferation) by ZA-pulsed cancer cells [9]: failed to elicit these effects

EC50 (read off the curve), ADCC on KatoIII cells pretreated 3 days with Irinotecan (Irino imab362) [10]: 1 µg/mL | EC50 (read off the curve), ADCC on medium-cultivated KatoIII cells (Med imab362) [10]: 2 µg/mL
Compound: IMAB362 (antibody)

Compound: infliximab: isotype control antibody [reference compound]
time within which all mice died [11]: 70 to 80 days

Compound: rituximab: Dyelight 680-labeled negative control antibody (NUGC-4 negative for CD20) [reference compound]
signal of labeled antibody in NUGC-4 engrafted mice [12]: No signal is detected
